The source of these data is publication PMC10377034, “Syntheses of 25-Adamantyl-25-alkyl-2-methylidene-1α,25-dihydroxyvitamin D3 Derivatives with Structure–Function Studies of Antagonistic and Agonistic Active Vitamin D Analogs” (Biomolecules, 2023).

Where two headings read alike, the source gives them in different places.

The subject of experiment [1] is VDR. The settings on record: cited from earlier work; for IC50: literature values, read-out: VDR Affinity IC50; for VDR affinity, % of that of 1: relative to 1,25(OH)2D3 (1).
Experiment [2] deals with VDR. The settings on record: literature values, cited from earlier work; for EC50: read-out: Transcriptional Activity EC50.
Experiment [3] deals with VDR. The settings on record: antagonist activity for 1; read-out: Antagonistic Activity IC50; cited from earlier work.
For experiment [4], the system named is human dedifferentiated fat (DFAT) cells. Briefly: Osteogenic differentiation assay: ALP activity in human DFAT cells. Type of experiment: cell-based. The settings on record: osteogenic medium, 100 nM, 7 days, natural hormone 1 = 100%. On the procedure:
Mature adipocytes from the adipose tissue of mammals such as humans and rodents can be dedifferentiated into pluripotent cells using ceiling culture. Dedifferentiated fat (DFAT) cells have potential applications in both regenerative medicine and injury healing, as well as mesenchymal stem cells, embryonic stem cells, and induced pluripotent stem cells. The osteogenic activity of vitamin D derivatives was assessed based on alkaline phosphatase (ALP) activity.
Samples of human subcutaneous adipose tissue were obtained from patients who underwent surgery in the Department of Pediatric Surgery at Nihon University Itabashi Hospital (Tokyo, Japan). The patients gave their written informed consent, and the Ethics Committee of Nihon University School of Medicine approved this study. We prepared dedifferentiated fat (DFAT) cells using the ceiling culture method, as described previously. Briefly, the adipose tissue (approximately 1 g) was cut into small pieces and digested with a 0.1% type I collagenase solution (Koken Co., Ltd., Tokyo, Japan). […] The cells that adhered to the upper surface of the flasks were cultured for conversion to dedifferentiated fat cells. […] Cells at passages 2–4 were used for differentiation experiments.
Cells were grown to confluency in 24-well plates and incubated for a week in DMEM containing 10% FBS, 100 nM dexamethasone (Merk), 10 mM β-glycerophosphate (Merk), and […] L-ascorbic acid-2-phosphate (Merk), with 100 nM of each compound. The induction medium was replaced on day 4. The alkaline phosphatase (ALP) activity in the cell lysates was determined on day 7 with a lab assay ALP kit (Fujifilm wako). The total protein content was determined with the BCA protein assay kit (Thermo Fisher Scientific). ALP levels were normalized to the total protein content.

The target of experiment [5] is T1, hVDR (Homo sapiens, UniProt P11473).
T1 construct: expressed in transfected cells; host or cells: HEK293
T1 sequence (P11473 1-427): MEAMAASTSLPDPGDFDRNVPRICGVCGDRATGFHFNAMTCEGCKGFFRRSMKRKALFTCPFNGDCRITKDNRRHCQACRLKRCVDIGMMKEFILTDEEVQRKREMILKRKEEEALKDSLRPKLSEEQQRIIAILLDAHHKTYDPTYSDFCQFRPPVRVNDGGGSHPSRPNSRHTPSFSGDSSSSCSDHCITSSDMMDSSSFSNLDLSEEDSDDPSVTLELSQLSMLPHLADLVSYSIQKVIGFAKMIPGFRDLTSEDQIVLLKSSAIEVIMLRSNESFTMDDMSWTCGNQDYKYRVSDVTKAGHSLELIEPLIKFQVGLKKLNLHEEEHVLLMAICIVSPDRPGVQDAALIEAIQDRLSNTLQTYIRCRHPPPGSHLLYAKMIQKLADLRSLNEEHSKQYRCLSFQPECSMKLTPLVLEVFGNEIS
The experiment is described as follows: VDR transactivation luciferase reporter assay in HEK293 cells (SPP×3-tk-LUC). In kind it is cell-based. The protocol:
The transcriptional activity of the 25-alkylvitamin D analogs on the VDR was evaluated via a luciferase reporter assay in HEK293 human kidney cells transfected with an hVDR expression vector and a luciferase reporter with mouse osteopontin vitamin D response elements (VDREs, SPP×3-tk-LUC).
Transfections of 50 ng of TK-Spp × 3-LUC reporter plasmid, 10 ng of pCMX-β-galactosidase, and 15 ng of pCMX-VDR for each well of a 96-well plate were performed in HEK293 cells using the calcium phosphate coprecipitation method, as described previously. The mammalian two-hybrid assay for cofactor interaction with VDR used 50 ng of TK-MH100(UAS) × 3- LUC reporter plasmid, 10 ng of pCMX-β-galactosidase, 15 ng of pCMX-GAL4-RXRα, pCMX-GAL4-SRC1, or pCMX-GAL4-NCoR, and 15 ng of pCMX-VP16-VDR for each well of a 96-well plate. Luciferase and β-galactosidase activities were measured with a luminometer and a microplate reader (Molecular Devices, Sun Jose, CA, USA), respectively. Luciferase values were normalized to the internal β-galactosidase control.
HEK293 cells were co-transfected with TK-Spp × 3-LUC reporter plasmid and pCMX−VDR, and 8 h after transfection the cells were treated with several concentrations of each compound. After 24 h, the cells were harvested for assaying luciferase and β-galactosidase activity using a luminometer (Molecular Devices, Sunnyvale, CA, USA).

Experiment [6] concerns CYP24A1 expression in H292 cells. Briefly: CYP24A1 expression (RT-qPCR) in H292 cells. The settings on record: H292 lung cells, 100 nM, 24 h.
Experimental: (§1) HEK293 human kidney cells (RIKEN Cell Bank, Tsukuba, Japan) were cultured in Dulbecco’s modified Eagle’s medium (DMEM) (Fujifilm Wako Pure Chemical Corporation, Tokyo, Japan) containing 5% fetal bovine serum (FBS), 100 U/mL penicillin, and 0.1 mg/mL streptomycin (Nacalai Tesque, Kyoto, Japan). SW480 human colon carcinoma cells (American Type Culture Collection, Manassas, VA) and HaCaT immortalized keratinocyte cells (kindly provided by Dr. Tadashi Terui, Department of Dermatology, Nihon University School of Medicine) were cultured in DMEM containing 10% FBS, 100 U/mL penicillin, and 0.1 mg/mL streptomycin. MG63 human osteosarcoma cells (RIKEN Cell Bank) and lung-derived H292 cells (American Type Culture Collection) were cultured in minimum essential medium containing 10% FBS, 100 U/mL penicillin, and 0.1 mg/mL streptomycin. […] All cells were cultured at 37 °C in a humidified atmosphere containing 5% CO2.
(§2) For gene expression analysis, 1 × 10^4 cells per well were plated in a 24-well plate. After 24 h, the cells were treated with an ethanol control or 100 nM of each test compound for 24 h. […] Real-time PCR was performed on the ABI PRISM 7000 sequence detection system (Thermo Fisher Scientific, Waltham, MA, USA) using Power SYBR Green PCR master mix (Thermo Fisher Scientific).
The subject of experiment [7] is CYP24A1 expression in HaCaT cells. Briefly: CYP24A1 expression (RT-qPCR) in HaCaT cells. The settings on record: HaCaT skin cells, 100 nM, 24 h.
Experimental: (§3) SW480 human colon carcinoma cells (American Type Culture Collection, Manassas, VA) and HaCaT immortalized keratinocyte cells (kindly provided by Dr. Tadashi Terui, Department of Dermatology, Nihon University School of Medicine) were cultured in DMEM containing 10% FBS, 100 U/mL penicillin, and 0.1 mg/mL streptomycin. […] All cells were cultured at 37 °C in a humidified atmosphere containing 5% CO2.
(§4) For gene expression analysis, 1 × 10^4 cells per well were plated in a 24-well plate. After 24 h, the cells were treated with an ethanol control or 100 nM of each test compound for 24 h. The total RNAs from the samples were extracted using the acid guanidine thiocyanate phenol/chloroform method [57], and cDNAs were synthesized using the ImProm-II reverse transcription system (Promega, Madison, WI) [43]. Real-time PCR was performed on the ABI PRISM 7000 sequence detection system (Thermo Fisher Scientific, Waltham, MA, USA) using Power SYBR Green PCR master mix (Thermo Fisher Scientific).
(§5) One-way ANOVA followed by Turkey’s multiple comparisons: ※ p < 0.05, ※※ p < 0.01, ※※※ p < 0.001 versus vehicle control.
Experiment [8] concerns CYP24A1 expression in HEK293 cells. The experiment is described as follows: CYP24A1 expression (RT-qPCR) in HEK293 cells. The settings on record: HEK293 kidney cells, 100 nM, 24 h.
Experimental: as §1, §2
Experiment [9] has as its system CYP24A1 expression in SW480 cells. The experiment is described as follows: CYP24A1 expression (RT-qPCR) in SW480 cells. The settings on record: SW480 intestine cells, 100 nM, 24 h.
Experimental: as §1, §2
Experiment [10] addresses T2, VDR with SRC-1 (Homo sapiens, UniProt P11473).
T2 sequence (P11473 1-427): T1 sequence (P11473 1-427)
T2 sequence (Q15788 595-771 partner limits assumed): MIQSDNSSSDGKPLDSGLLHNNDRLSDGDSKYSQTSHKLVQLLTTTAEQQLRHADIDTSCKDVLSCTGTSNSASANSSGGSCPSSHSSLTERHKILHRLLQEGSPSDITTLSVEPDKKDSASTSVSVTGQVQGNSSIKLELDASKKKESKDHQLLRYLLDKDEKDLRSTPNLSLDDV
The experiment is described as follows: Mammalian two-hybrid assay, VDR binding to SRC-1.
Experimental: (§6) We used the expression plasmids pCMX-VDR, pCMX-VP16- VDR, pCMX-GAL4-RXRα, pCMX-GAL4-SRC-1, and pCMX-GAL4- N-CoR, as reported previously [43]. […] We used luciferase reporters: VDR-responsive Sppx3-tk-LUC and GAL4-responsive MH100(UAS) × 4-tk-LUC reporters [43].
(§7) Transfections of 50 ng of TK-Spp × 3-LUC reporter plasmid, 10 ng of pCMX-β-galactosidase, and 15 ng of pCMX-VDR for each well of a 96-well plate were performed in HEK293 cells using the calcium phosphate coprecipitation method, as described previously [43]. The mammalian two-hybrid assay for cofactor interaction with VDR used 50 ng of TK-MH100(UAS) × 3- LUC reporter plasmid, 10 ng of pCMX-β-galactosidase, 15 ng of pCMX-GAL4-RXRα, pCMX-GAL4-SRC1, or pCMX-GAL4-NCoR, and 15 ng of pCMX-VP16-VDR for each well of a 96-well plate. Luciferase and β-galactosidase activities were measured with a luminometer and a microplate reader (Molecular Devices, Sun Jose, CA, USA), respectively. Luciferase values were normalized to the internal β-galactosidase control.
(§8) (B) Effects on the interactions between the VDR and SRC-1. HEK293 cells were co-transfected with CMX-GAL4-SRC-1, CMX-VP16-VDR, and MH100 (UAS) × 4-tk-LUC and were treated with each compound over a range of concentrations. (C) Effects on interactions of the VDR with NCoR-1. HEK293 cells were co-transfected with CMX-GAL4-N-CoR in combination with CMX-VP16-VDR and MH100 (UAS) × 4-tk-LUC and were treated with each compound over a range of concentrations.

The target in experiment [11] is T3, VDR with RXRα (Homo sapiens, UniProt P11473).
T3 sequence (P11473 1-427): T1 sequence (P11473 1-427)
T3 sequence (P19793 1-462 partner): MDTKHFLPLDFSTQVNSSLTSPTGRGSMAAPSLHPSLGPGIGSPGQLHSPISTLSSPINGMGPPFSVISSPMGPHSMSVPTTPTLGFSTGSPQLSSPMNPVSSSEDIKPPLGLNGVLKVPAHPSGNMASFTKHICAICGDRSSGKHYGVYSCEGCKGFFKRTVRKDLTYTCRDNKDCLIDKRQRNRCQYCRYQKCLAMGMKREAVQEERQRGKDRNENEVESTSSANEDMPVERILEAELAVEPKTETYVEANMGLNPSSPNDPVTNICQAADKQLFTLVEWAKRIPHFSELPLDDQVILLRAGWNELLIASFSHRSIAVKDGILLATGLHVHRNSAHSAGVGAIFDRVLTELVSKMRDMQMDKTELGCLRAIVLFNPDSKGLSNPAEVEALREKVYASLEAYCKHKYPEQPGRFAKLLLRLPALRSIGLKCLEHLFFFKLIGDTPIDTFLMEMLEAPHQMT
The experiment is described as follows: Mammalian two-hybrid assay, interaction of the VDR with RXRα.
Experimental: as §6, §7, §8

Experiment [12] has as its target T4, recombinant hVDR-LBD (Homo sapiens, UniProt P11473).
T4 sequence (P11473 140-427): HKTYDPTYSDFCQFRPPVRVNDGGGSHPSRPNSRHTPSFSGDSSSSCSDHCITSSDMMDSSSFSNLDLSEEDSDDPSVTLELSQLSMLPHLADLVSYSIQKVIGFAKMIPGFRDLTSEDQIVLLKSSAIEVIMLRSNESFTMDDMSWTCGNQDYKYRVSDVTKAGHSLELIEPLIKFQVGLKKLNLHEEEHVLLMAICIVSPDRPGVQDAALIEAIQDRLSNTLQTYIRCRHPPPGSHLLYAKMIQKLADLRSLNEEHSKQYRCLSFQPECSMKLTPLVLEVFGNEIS
The settings on record: relative to 1,25(OH)2D3.

In experiment [13] the target is T5, VDR with NCoR (Homo sapiens, UniProt P11473).
T5 sequence (P11473 1-427): T1 sequence (P11473 1-427)
Briefly: Mammalian two-hybrid assay, dissociation of NCoR from the VDR.
Experimental: as §6, §7, §8

The target of experiment [14] is T4, recombinant hVDR-LBD. Briefly: biochemical.
In experiment [15] the test system is CYP24A1 expression in U937 cells. The experiment is described as follows: CYP24A1 expression (RT-qPCR) in U937 cells. The settings on record: U937 blood cells, 100 nM, 24 h.
Experimental: as §3, §4, §5
The test system of experiment [16] is CYP24A1 expression in MG63 cells. Briefly: CYP24A1 expression (RT-qPCR) in MG63 cells. The settings on record: MG63 bone cells, 100 nM, 24 h.
Experimental: as §1, §2

On to `C=C1/C(=C\C=C2/CCC[C@]3(C)[C@@H]([C@H](C)CC#C[C@H](O)C45CC6CC(CC(C6)C4)C5)CC[C@@H]23)C[C@@H](O)C[C@@H]1O` [ADOR2], for which the half-maximal inhibitory concentration (IC50) in experiment [1] is 0.6 nM. In experiment [2], the “Transcriptional Activity % Efficacy of That of 1” value is > 52% and the 50% effective concentration (EC50) is 5.7 nM.
Take `C=C1/C(=C\C=C2/CCC[C@]3(C)[C@@H]([C@H](C)/C=C/[C@@H](O)C4(C(=O)O/C=C\C(=O)OCC)CC4)CC[C@@H]23)C[C@@H](O)C[C@@H]1O` [ZK168281]: in experiment [3], the IC50 was 50 nM.
As to `C=C1C[C@H](C[C@@H](C)[C@H]2CC[C@H]3/C(=C/C=C4/C[C@@H](O)C[C@H](O)C4=C)CCC[C@]23C)OC1=O` [TEI-9647, (23S)-25-dehydro-1α-hydroxyvitamin D3-26,23-lactone], the IC50 in experiment [3] is 100 nM; in [1], 1 nM. For the same compound, in experiment [2], the EC50 is 50 nM.
Consider `C=C1[C@H](O)CC(=C/C=C2\CCC[C@]3(C)[C@@H]([C@@H](C)/C=C/C[C@@H](O)C45CC6CC(CC(C6)C4)C5)CC[C@@H]23)C[C@H]1O` [ADTT], for which the IC50 in [3] was 3 nM. Moreover, in [1], the IC50 was 0.13 nM and the “VDR affinity, % of that of 1” value is listed as 67%. In [2], the “Transcriptional Activity % Efficacy of That of 1” value is listed as 15% and the EC50 was 1 nM.
`C=C1/C(=C\C=C2/CCC[C@]3(C)[C@@H]([C@H](C)CCCC(C)(C)O)CC[C@@H]23)C[C@@H](O)C[C@@H]1O` [1,25(OH)2D3, 1α,25-dihydroxyvitamin D3]: in experiment [4], the ALP activity is given as 100%.
For the compound `C=C1/C(=C\C=C2/CCC[C@]3(C)[C@@H]([C@H](C)CC#C[C@@H](O)C45CC6CC(CC(C6)C4)C5)CC[C@@H]23)C[C@@H](O)C[C@@H]1O` [ADOR1, 25 S-sdamantyl-23-yne-26,27-dinor-1α,25-dihydroxyvitamin D(3)], the IC50 in [1] was 0.24 nM. For the same compound, in experiment [2], the “Transcriptional Activity % Efficacy of That of 1” value is listed as 87% and the EC50 is 0.03 nM.
With `C=C1[C@H](O)CC(=C/C=C2\CCC[C@]3(C)[C@@H]([C@H](C)CC#C[C@](O)(CC)C45CC6CC(CC(C6)C4)C5)CC[C@@H]23)C[C@H]1O` [ADKM4, (25S)-25-(1-Adamantyl)-1a,25-dihydroxy-26-methyl-2-methylidene-23-yne-19,27-dinorvitamin D3], in experiment [5] (1,25(OH)2D3 = 100%), the Transcriptional activity efficacy stood at 104%. For the same compound, the Emax in experiment [5] (this study, read-out: Transcriptional Activity % Efficacy of That of 1 (converted)) is 104%. The EC50 in experiment [5] (this study, read-out: Transcriptional Activity EC50) is 0.2 nM; in experiment [10] it was 1.2 nM; in experiment [11] it was 1.1 nM. In addition, the “CYP24A1 expression relative to natural hormone 1” value in [6] is reported as 113%; in experiment [7] it was 91.9%; in experiment [8], 91.5%; in experiment [9], 126%; in [15] it was 85.1%; in [16] it was 73.3%. The ALP activity in experiment [4] is 72.6%. The “VDR affinity, % of that of 1,25(OH)2D3” value in experiment [12] is given as 27%. Besides, the half-maximal inhibitory concentration (IC50) in [13] turned out to be 0.5 nM; in [14], 1.3 nM.
On to `C=C1[C@H](O)CC(=C/C=C2\CCC[C@]3(C)[C@@H]([C@@H](C)/C=C/C[C@H](O)CC45CC6CC(CC(C6)C4)C5)CC[C@@H]23)C[C@H]1O` [ADMI3, (25S)-26-adamantyl-25-hydroxy-2-methylene-22,23-didehydro-19,27-dinor-20-epi-vitamin D3], for which, in [1], the IC50 was 0.6 nM and the “VDR affinity, % of that of 1” value is reported as 17%. In [2], the “Transcriptional Activity % Efficacy of That of 1” value is given as 10%.
